# Measurements published in patent US6420413B2, “Heterocycloalkylbenzocyclobutane and heteroarylbenzocyclobutane compounds” (Les Laboratories Servier, priority 2000, dated 2002).
# Tests used:
# [1] = tested on: level of serotonin, noradrenalin and dopamine in cingulate frontal cortex; assay: Microdialysis experiment in the rat; format: in vivo; conditions: rat frontal cortex dialysate, 10 mg/kg subcutaneously
# Method: Rats are anaesthetised with pentobarbital (60 mg/kg i.p.). They are placed in a Kopf stereotactic device and the cannula guide is implanted in the cingulate frontal cortex in accordance with the coordinates described in the Paxinos and Watson atlas (1982) as follows: AP=+2.2; L=±0.6; DV=−0.2. The rats are placed in separate cages and are not used in dialysis until 5 days later. […] The probe is perfused at a flow rate of 1 μl/mn with a solution of 147.2 mM NaCl, 4 mM KCl and 2.3 mM CaCl2 adjusted to pH 7.3 with a phosphate buffer (0.1 M). Two hours after implantation, samples are collected every 20 minutes for 4 hours. Three baseline samples are taken before administration of the products to be tested. The rats are left in their individual cages for the whole of the experiment. When the experiment is finished, the rats are decapitated and the brain is removed and frozen in isopentane. Sections of a thickness of 100 μm are cut and stained with cresyl violet, which allows verification of the location of the probes.
# The simultaneous quantification of dopamine, norepinephrine and serotonin is carried out as follows: 20 μl dialysis samples are each diluted with 20 μl of mobile phase (NaH2PO4: 75 mM, EDTA: 20 μM, sodium 1-decanesulphonate: 1 mM, methanol: 17.5%, triethylamine: 0.01%, pH: 5.70) and 33 μl samples are analysed by HPLC using a reverse phase column thermostatically maintained at 45° C. and quantified by means of a coulometric detector. The potential of the first electrode of the detector is set at −90 mV (reduction) and that of the second at +280 mV (oxidation). The mobile phase is injected at a flow rate of 2 ml/mn using a pump. The sensitivity limits for dopamine, norepinephrine and serotonin are 0.55 fmol per sample. All the products of the invention are injected subcutaneously in a volume of 1.0 ml/kg. The products are dissolved in distilled water to which a few drops of lactic acid have been added if necessary.
# [2] = tested on: spontaneous marble-burying behaviour of mice; assay: Marble-burying test in mice; format: in vivo; conditions: male NMRI mice, 30 minutes' free exploration, s.c.
# Excerpt: This test enables evaluation of the capacity of pharmacological agents to inhibit the spontaneous marble-burying behaviour of mice, the inhibition being predictive of antidepressant and/or anti-impulsive action. Male mice of the NMRI strain (Iffa-Credo, l'Arbresle, France) weighing from 20 to 25 g on the day of the experiment are placed individually in Macrolon® boxes (30×18×19 cm) containing 5 cm of sawdust and covered with a perforated plexiglass plate. Twenty-four “tiger's eye” glass marbles are evenly distributed on the sawdust at the periphery of the box. At the end of 30 minutes' free exploration, the animals are removed from the box and the number of buried marbles is counted.
SMILES,increase of the level of dopamine (maximum % of the effect compared with the baseline level defined as 0%) [1] [%],increase of the level of noradrenalin (maximum % of the effect compared with the baseline level defined as 0%) [1] [%],increase of the level of serotonin (maximum % of the effect compared with the baseline level defined as 0%) [1] [%],"Marble-burying in mice, ID50 (inhibitory dose50) [2] [mg/kg s.c.]"
"CN(C)CC1(C2(O)CCCCC2)Cc2cc3occc3cc21 (centres unmarked) [Example 5, 1-{5-[(Dimethylamino)methyl]-5,6-dihydrocyclobuta[f][1]benzofuran-5-yl}cyclohexanol]",400±50,500±13,250±15,0.6
"CNCCC(Oc1ccc(C(F)(F)F)cc1)c1ccccc1 (centres unmarked) [Fluoxetine, fluoxetine, reference compound]",–,–,–,8.03
